The numbers were not newly measured in patent publication US20030035836A1, “Oral controlled release pharmaceutical composition for once-a-day therapy for the treatment and prophylaxis of cardiac and circulatory diseases” (priority 2001, published 2003), which cites them from elsewhere.

For this series the following is noted: oral administration; considerable first pass metabolism.

For the compound `COc1ccccc1OCCNCC(O)COc1cccc2[nH]c3ccccc3c12` (racemic) [Carvedilol, 1-(9H-carbazol-4-yloxy)-3-[[2-(2-methoxyphenoxy)ethyl]amino]-2-propanol], the absolute bioavailability was 25%.
